Assay results as given in PMC9837035 (Nature Communications, 2023).
Several values for one entry are separate records, joined by “and”; a condition that tells them apart may be missing. Equal entries are not always repeated.

Tests used:
[1] = target: T1, NSD1 (Homo sapiens, UniProt Q96L73); test: Radioisotope-based methyltransferase assay (selectivity); format: biochemical
T1 construct: purchased Reaction Biology

[2] = target: T2, G9a (Homo sapiens, UniProt Q96KQ7); test: In vitro G9a methyltransferase assay (AlphaLISA-based); format: biochemical; design: purchased BPS Bioscience
T2 sequence (Q96KQ7 1-1210): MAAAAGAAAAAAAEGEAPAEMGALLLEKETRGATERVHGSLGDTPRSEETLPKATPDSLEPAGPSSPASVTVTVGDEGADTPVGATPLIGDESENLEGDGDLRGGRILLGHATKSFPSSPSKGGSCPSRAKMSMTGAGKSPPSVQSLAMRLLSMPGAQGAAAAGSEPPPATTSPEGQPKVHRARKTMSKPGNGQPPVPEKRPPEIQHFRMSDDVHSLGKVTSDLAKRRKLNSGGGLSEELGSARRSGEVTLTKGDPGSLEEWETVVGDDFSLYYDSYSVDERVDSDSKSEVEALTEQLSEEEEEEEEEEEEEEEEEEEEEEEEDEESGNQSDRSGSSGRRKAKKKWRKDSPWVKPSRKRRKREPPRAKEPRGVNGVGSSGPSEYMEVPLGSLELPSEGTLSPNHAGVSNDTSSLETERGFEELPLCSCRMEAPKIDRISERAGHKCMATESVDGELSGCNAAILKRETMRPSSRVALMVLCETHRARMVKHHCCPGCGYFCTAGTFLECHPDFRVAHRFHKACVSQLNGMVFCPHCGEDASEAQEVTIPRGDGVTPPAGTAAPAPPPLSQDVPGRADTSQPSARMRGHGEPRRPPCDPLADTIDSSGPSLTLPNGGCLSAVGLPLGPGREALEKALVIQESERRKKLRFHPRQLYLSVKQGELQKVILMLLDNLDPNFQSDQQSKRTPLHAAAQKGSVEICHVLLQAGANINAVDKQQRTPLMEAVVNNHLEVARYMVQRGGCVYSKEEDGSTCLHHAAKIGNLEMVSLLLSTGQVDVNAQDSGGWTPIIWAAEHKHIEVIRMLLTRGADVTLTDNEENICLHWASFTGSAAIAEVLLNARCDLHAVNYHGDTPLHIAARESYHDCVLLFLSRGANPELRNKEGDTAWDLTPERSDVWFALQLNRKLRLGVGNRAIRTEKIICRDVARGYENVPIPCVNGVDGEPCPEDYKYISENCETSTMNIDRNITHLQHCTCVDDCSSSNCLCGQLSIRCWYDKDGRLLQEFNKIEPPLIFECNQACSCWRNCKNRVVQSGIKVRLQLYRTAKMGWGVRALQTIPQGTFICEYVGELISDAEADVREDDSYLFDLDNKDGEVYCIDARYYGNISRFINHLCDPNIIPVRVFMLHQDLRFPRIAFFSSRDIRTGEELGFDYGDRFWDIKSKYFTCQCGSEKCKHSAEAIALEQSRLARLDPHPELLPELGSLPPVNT
Experimental: An amplified luminescence proximity homogeneous assay (ALPHA) was performed with a modified version of a previously described method. Recombinant G9a proteins (BPS Bioscience) were incubated with 15 μM S-adenosyl-methionine (Sigma) and 50 nM biotinylated histone H3 (1-21; AnaSpec) in the assay buffer (50 mM Tris-HCl (pH 9.0), 50 mM NaCl, 0.01% Tween-20, and 1 mM DTT). After incubation at room temperature for 1 h, AlphaLISA anti-H3K9me2 acceptor beads (final concentration 10 μg/mL, PerkinElmer, AL117C) and AlphaScreen streptavidin donor beads (final concentration 10 μg/mL, PerkinElmer, 6760002B) were added and incubated for an additional 1 h prior to detection of the alpha signal with an EnSpire Alpha plate reader (PerkinElmer). ALPHA profile was analyzed using Origin (OriginLab).

[3] = G9a activity, 0.016 μM, single experiment
[4] = G9a activity, 0.08 μM, single experiment
[5] = G9a activity, 0.4 μM, single experiment
[6] = G9a activity, 2 μM, single experiment
[7] = G9a activity, single experiment
[8] = G9a activity, 10 μM, single experiment
[9] = G9a activity, 50 μM, single experiment

T1 sequence (Q96L73 whole entry): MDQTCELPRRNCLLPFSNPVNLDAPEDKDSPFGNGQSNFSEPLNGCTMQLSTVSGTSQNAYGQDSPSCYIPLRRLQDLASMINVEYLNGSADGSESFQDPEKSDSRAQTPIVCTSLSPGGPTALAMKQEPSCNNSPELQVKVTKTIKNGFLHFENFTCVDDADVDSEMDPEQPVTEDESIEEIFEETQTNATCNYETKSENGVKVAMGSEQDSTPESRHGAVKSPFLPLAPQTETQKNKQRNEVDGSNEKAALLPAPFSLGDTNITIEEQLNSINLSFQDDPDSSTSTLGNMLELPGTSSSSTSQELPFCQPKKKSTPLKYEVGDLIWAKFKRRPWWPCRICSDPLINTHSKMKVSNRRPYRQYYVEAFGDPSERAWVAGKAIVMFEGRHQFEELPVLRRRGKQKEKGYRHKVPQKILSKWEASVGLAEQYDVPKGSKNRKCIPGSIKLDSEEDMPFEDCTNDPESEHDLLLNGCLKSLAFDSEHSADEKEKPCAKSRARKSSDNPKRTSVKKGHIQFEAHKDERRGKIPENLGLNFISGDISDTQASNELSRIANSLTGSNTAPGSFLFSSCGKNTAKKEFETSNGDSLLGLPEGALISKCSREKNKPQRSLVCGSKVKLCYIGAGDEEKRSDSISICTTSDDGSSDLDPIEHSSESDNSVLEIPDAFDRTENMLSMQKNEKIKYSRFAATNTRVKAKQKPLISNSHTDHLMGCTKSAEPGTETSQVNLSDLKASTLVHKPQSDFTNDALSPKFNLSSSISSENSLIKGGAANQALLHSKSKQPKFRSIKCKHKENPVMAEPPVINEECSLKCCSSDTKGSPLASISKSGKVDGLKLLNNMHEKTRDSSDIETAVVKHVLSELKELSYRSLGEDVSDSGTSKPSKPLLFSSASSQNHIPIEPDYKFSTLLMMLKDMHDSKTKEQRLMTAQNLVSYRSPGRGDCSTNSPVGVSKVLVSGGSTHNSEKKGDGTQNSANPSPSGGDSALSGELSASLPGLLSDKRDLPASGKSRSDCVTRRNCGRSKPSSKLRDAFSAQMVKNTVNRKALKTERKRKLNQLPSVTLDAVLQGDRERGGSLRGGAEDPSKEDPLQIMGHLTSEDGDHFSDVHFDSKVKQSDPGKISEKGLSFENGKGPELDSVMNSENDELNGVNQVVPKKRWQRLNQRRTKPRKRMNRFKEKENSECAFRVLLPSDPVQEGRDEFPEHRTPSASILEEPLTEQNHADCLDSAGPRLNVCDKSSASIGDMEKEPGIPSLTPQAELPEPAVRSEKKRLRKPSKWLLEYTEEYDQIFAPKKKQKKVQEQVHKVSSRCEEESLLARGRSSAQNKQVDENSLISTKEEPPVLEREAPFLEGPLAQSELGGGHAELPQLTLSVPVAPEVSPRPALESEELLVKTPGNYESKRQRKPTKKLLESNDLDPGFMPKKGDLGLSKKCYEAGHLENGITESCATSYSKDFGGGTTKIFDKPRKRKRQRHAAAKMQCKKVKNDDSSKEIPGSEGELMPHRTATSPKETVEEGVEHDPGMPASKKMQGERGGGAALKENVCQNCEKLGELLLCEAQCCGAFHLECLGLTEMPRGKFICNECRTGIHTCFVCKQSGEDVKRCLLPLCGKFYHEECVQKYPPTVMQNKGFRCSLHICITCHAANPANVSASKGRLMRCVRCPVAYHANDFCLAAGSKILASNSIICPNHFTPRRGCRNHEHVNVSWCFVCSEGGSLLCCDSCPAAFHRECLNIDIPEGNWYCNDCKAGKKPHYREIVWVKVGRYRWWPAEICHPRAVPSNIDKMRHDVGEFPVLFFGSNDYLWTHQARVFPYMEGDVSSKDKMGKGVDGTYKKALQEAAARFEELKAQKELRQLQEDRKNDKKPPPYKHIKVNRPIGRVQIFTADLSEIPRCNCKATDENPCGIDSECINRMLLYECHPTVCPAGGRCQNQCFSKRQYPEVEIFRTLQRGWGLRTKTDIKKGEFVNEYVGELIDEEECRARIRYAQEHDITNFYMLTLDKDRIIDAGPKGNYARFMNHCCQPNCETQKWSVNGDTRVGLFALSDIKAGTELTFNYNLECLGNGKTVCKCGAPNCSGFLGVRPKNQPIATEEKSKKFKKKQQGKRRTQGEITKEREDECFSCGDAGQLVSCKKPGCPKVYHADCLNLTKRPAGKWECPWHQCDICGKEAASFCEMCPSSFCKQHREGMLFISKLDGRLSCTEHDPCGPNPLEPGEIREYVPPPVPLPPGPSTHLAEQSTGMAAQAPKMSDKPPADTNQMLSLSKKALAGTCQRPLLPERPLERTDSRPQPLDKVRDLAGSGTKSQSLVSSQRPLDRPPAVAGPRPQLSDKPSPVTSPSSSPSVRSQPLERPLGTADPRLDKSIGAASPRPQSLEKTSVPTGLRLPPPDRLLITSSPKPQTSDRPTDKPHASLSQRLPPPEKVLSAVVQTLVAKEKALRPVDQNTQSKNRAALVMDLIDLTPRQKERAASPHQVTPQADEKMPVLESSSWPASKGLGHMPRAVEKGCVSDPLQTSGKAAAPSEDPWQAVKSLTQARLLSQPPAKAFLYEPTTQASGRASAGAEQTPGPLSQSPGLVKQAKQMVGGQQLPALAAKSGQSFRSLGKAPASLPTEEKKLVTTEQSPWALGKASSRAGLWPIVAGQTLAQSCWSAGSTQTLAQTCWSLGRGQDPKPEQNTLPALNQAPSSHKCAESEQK

Compound	IC50 ([1]; NSD1, 1 μM SAM)	IC50 ([1]; NSD1, RK-701 in duplicate)	IC50 ([2]; G9a)	Inhibition % ([2]; G9a activity, 0.00064 μM, single experiment)	Inhibition % [2, 3]	inhibition at 0.016 µM [2, 3]	Inhibition % [2, 4]	inhibition at 0.08 µM [2, 4]	Inhibition % [2, 5]	inhibition at 0.4 µM [2, 5]	Inhibition % [2, 6]	inhibition at 2 µM [2, 6]	IC50 [2, 7]	Inhibition % ([2]; G9a activity, 0.0032 μM, single experiment)	Inhibition % [2, 8]	inhibition at 10 µM [2, 8]	Inhibition % [2, 9]	inhibition at 50 µM [2, 9]
Cc1c(C(=O)NC(CCC2CC2)C(=O)Nc2ccc(C#N)cc2)[nH]c2c1C(=O)CC(C)(C)C2 (centres unmarked) [RK-701]	> 100 µM	> 100 µM	0.023 to 0.027 µM and 0.027 µM	6.475% and 0%	30.3347% and 30.0776%	35.6%	81.1273% and 81.8822%	82.3%	98.9416% and 99.213%	99.3%	99.979% and 99.9697%	100%	0.0248 µM and 0.029 µM and 0.0285 µM	–	–	–	–	–
Cc1c(C(=O)N[C@H](CCC2CC2)C(=O)Nc2ccc(C#N)cc2)[nH]c2c1C(=O)CC(C)(C)C2 [RK-0133114]	–	–	3.7 µM	–	4.31% and 2.981% and 0%	–	0% and 8.43%	–	–	–	32.9012% and 25.4405%	42.7%	3.01 µM and 3.62 µM and 4.44 µM	9.4545% and 6.383% and 0%	77.5611% and 74.8715%	74.3%	96.0953% and 94.6907%	97.9%
Nc1ncnc2c1ncn2[C@@H]1O[C@H](CSCC[C@H](N)C(=O)O)[C@@H](O)[C@H]1O [SAH, S-(5'-Adenosyl)-L-homocysteine, reference compound]	56.6 µM	56.6 µM	–	–	–	–	–	–	–	–	–	–	–	–	–	–	–	–
